{"source": "paper PMC11628400", "about": "(Nature Cell Biology, 2024)", "key": {"[1]": {"biological_target": "T1, NAT10 (Homo sapiens, UniProt Q9H0A0)", "T1 sequence (Q9H0A0 1-1025)": "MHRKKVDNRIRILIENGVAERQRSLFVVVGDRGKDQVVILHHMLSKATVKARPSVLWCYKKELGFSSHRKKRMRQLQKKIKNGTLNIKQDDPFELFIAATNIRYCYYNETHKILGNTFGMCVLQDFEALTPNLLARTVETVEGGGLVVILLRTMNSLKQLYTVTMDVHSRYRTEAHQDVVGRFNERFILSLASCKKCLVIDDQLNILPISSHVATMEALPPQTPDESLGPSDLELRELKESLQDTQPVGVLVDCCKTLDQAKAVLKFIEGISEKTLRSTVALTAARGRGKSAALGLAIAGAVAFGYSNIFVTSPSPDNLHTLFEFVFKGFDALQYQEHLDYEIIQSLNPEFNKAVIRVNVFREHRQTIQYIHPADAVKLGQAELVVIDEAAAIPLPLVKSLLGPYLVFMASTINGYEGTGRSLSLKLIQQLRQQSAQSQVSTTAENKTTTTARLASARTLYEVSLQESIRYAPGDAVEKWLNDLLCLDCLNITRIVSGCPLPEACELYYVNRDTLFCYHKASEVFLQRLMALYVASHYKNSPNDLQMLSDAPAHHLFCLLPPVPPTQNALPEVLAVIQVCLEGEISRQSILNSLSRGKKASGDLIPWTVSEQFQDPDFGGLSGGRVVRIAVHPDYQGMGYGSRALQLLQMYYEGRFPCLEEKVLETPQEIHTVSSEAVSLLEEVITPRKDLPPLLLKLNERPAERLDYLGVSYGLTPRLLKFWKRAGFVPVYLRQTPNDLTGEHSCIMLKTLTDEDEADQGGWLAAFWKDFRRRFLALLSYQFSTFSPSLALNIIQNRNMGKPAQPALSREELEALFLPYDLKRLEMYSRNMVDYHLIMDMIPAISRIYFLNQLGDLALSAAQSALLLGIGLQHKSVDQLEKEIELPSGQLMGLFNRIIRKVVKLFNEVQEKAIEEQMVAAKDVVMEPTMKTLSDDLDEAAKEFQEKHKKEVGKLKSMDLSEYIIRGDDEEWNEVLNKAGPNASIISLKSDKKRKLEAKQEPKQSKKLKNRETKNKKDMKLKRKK", "assay": "DARTS", "type": "cell-based"}, "[2]": {"biological_target": "T1, NAT10", "assay": "DARTS in MOLM13 lysate", "type": "cell-based"}}, "data": [{"smiles": "Nc1nc(F)nc2c1ncn2[C@@H]1O[C@H](COP(=O)(O)OP(=O)(O)OP(=O)(O)O)[C@@H](O)[C@@H]1O", "note": "[F-ara-ATP, fludarabine triphosphate]", "values": [{"measurement": "DARTS (protection from pronase digestion) in MOLM13 lysate", "setting": "[1]", "result": "The binding of fludarabine and F-ara-ATP with NAT10 were confirmed by drug affinity responsive target stability assay (DARTS)"}]}, {"smiles": "Nc1nc(F)nc2c1ncn2[C@@H]1O[C@H](COP(=O)(O)O)[C@@H](O)[C@@H]1O", "note": "[P-F-ara-A, fludarabine (P-F-ara-A)]", "values": [{"measurement": "DARTS (protection from pronase digestion) in MOLM13 lysate", "setting": "[1]", "result": "DARTS assays evaluating the efficacy of Remodelin, P-F-ara-A and F-ara-ATP on protecting NAT10 protein against pronase digestion"}]}, {"smiles": "N#Cc1ccc(-c2csc(NN=C3CCCC3)n2)cc1", "note": "[Remodelin]", "values": [{"measurement": "DARTS in MOLM13 lysate; CETSA in MonoMac6 cells", "setting": "[2]", "result": "Thermal shift curves of NAT10 from CETSA assays in MonoMac6 pretreated with fludarabine (F-ara-A), Remodelin or dimethylsulfoxide (DMSO)"}]}]}
